Tests used:
PyMT8119-OVA cells = experiment: Cytotoxic T-cell lymphocyte (CTL) co-culture assay; type: cell-based, mouse; conditions: OT-I CD8+ T-cells co-cultured with LCoR-OE tumor cells, in combination with anti-PD-L1
Description: These paradoxical effects of LCoR, increased immunogenicity vs. increased PD-L1, poses LCoR expressing cells as largely responsive cells to anti-PD-L1 immune-checkpoint blockade therapy.
The transgenic OT-I mouse model strain with specific TCR for the OVA-derived peptide SIINFEKL MHC-I presented, were used to isolate splenocytes and CD8+T-cells that specifically recognize the SIINFEKL peptide (OVA 257-264). 9-week OT-I mice were sacrificed to obtain the spleen. Using mechanical dissociation of the spleen over a sterile 40 μm mesh screen. Total splenocytes were plated in six well plates and non-attached T cells were separated from adherent dendritic cells (DC) after 24 hours. CD8+T-cells were isolated by FACS.
Cytotoxic T-cell lymphocyte (CTL) co-culture assays. CD8+ T-cells were isolated from the spleen of OT-I mice and activated in culture with OVA peptide during 48 hours. Activated CD8+ T-cells were cocultured in 24-well plates with PyMT8119-OVA cells in different ratios of effector T-cells:tumor cells (E:T). After 5 days of coculture, T-cells and debris were removed, washed with media and stained with Sulforhodamine B (SRB) for measuring cytotoxicity (Vichai and Kirtikara 2006). […]

LCoR = experiment: Doxorubicin treatment of breast cancer cells, LCoR mRNA by qRT-PCR; type: cell-based, human; conditions: 360 nM during 48 hours, MDA-MB-231 cells
Experimental: Low dose treatment of breast cancer cells (360 nM during 48 hours) induced an increase of 2.3 fold change mRNA expression of LCoR in MDA-MB-231 cells.
Cell lines, culture conditions and treatments. All cell lines used in the study, including mammary epithelial cell lines (human HMLE), breast cancer cell lines (human MDA-MB-231 and mouse 4TO7; PyMT8119; AT3 cell lines) and other cell lines (HEK293T, H29 and HeLa), were cultured using the standard conditions according the American Type Culture Collection (ATCC) instructions. Doxorrubicin treatment was performed at 360 nM during 48 hours in MDA-MB-231 cells.
qRT-PCR analyses. Total mRNA was isolated using the RNAeasy isolation Kit (QIAGEN). mRNA reverse transcription was done using Applied Biosystems reactants and real-time quantitative PCR performed using the Power SYBR green PCR master mix (Applied Biosystems). All analyses were performed using an ABI 7900HT PCR machine. mRNA expression was normalized by the expression of GAPDH in each sample.

Compound: Atezolizumab
- sensitivity to immune detection and killing (PyMT8119-OVA cells): enhanced sensitivity to immune detection and killing

Compound: COc1cccc2c1C(=O)c1c(O)c3c(c(O)c1C2=O)C[C@@](O)(C(=O)CO)C[C@@H]3O[C@H]1C[C@H](N)[C@H](O)[C@H](C)O1 [Doxorubicin]
- increase of mRNA expression of LCoR (LCoR): 2.3 fold change
